These results are taken from patent publication US20230364102A1, “COMPOSITIONS AND METHODS FOR THE TREATMENT OF NEUROLOGICAL DISORDERS” (Duke University, priority 2020, published 2023).

The subject of assay [1] is human LRRK2 G2019S or GFP expressing neuronal cultures. The assay is described as follows: QPCR-based mtDNA damage assay in primary midbrain neuronal cultures expressing human LRRK2 G2019S. The format is cell-based. The conditions noted are these: treated for 6 h.
From the text: Divide the normalized fluorescence values of each sample by the average normalized fluorescence value to get a ratio. […]
The subject of assay [2] is primary rat midbrain neurons. The assay is described as follows: Rotenone-induced mtDNA damage in primary midbrain neurons. To be noted: pre-treated for 24 h before rotenone. It counts as cell-based. How it is done: (§1) This example describes how mitochondrial DNA damage was measured using a quantitative PCR-based assay as described above. The following reagents and protocol steps as disclosed in Sanders et al., Curr Protoc Toxicol. 2018 May; 76(1): e50, doi: 10.1002/cptx.50 and also in U.S. Pat. No. 11,001,890. The entire contents of said publication and patent are herein incorporated by reference.
(§2) Make a master mix if several samples are being run simultaneously. […]
(§3) Perform the PCR reaction using the PCR amplification profile is as follows for the large mitochondrial PCR product using the KAPA LongRange Hot Start kit: • Melting: 94° C. for 3 min • Amplification: the optimized number of cycles (26-28) of melting (94° C. for 15 sec) and annealing (66° C. for 12 min). • Final extension: To complete the profile and finalize amplification of products, perform a final extension for 10 min at 72° C. • Holding: Hold at 4° C. until products are removed for quantification. […]
(§4) (1) Add 10 μL of each PCR product and 90 μL of TE buffer to each of triplicate wells. […] Follow steps 6, 7 and 8 in Support Protocol 2 for fluorescent quantification of DNA.
(§5) Normalize large mitochondrial PCR product fluorescence values for copy number differences using the small mitochondrial PCR product. […] This is the normalized large mitochondrial fluorescence value (A. M. Furda, Bess, Meyer, & Van Houten, 2012a). […]

The test system of assay [3] is LRRK2 G2019S patient-derived cells. The assay can be described thus: mtDNA damage in LRRK2 G2019S patient-derived cells. The conditions noted are these: 24 h, 1 μM, n=3. The format is cell-based, human. How it is done: as §1, §2, §3, §4, §5
Assay [4] has as its system ATM pSer1981. The conditions noted are these: following treatment with the neurotoxin; cited from earlier work.
Assay [5] deals with ATM pSer1981. The assay is described as follows: Western blot of ATM pSer1981 in HEK293 cells. The conditions noted are these: 100 nM, 24 h vs vehicle. It counts as cell-based, human. (Immunoblotting shows a protein as a band on a membrane.)

`CCNc1nc(Nc2cc(F)c(C(=O)N3CCOCC3)cc2OC)ncc1C(F)(F)F` [GNE-7915]: the “mtDNA damage (mtDNA integrity)” value in assay [1] is reported as “restored mtDNA integrity”. The “prevention of rotenone induced mtDNA damage” value in assay [2] is given as “able to prevent rotenone induced mtDNA damage”.

On to `C[C@@H]1CN(CC(=O)Nc2ccc3c(c2)Cc2cccc(-c4cc(=O)cc(N5CCOCC5)o4)c2S3)C[C@H](C)O1` [KU60019], for which the mtDNA damage result in assay [3] is reported as “sufficient to reverse mtDNA damage”.

Take `C[n+]1ccc(-c2ccccc2)cc1` [MPP+]: in the assay on ATM pSer1981 [4], the “expression of ATM pSer1981” value is “increased”.

`C=C(C)[C@H]1Cc2c(ccc3c2O[C@@H]2COc4cc(OC)c(OC)cc4[C@@H]2C3=O)O1` [rotenone]: the “ATM pSer1981 (kinase active) level” value in the assay on ATM pSer1981 [5] is reported as “increased ATM pSer1981 levels”; in the assay with ATM pSer1981 [5] (listed as Rotenone), “increased levels of ATM pSer1981”.
